Assay results reported in the supplement of paper PMC5412046.
Where a name gives a salt, the structure may show the parent alone.

Experiments:
SB.mhdgc-1 [1] = assay: viability at highest tested concentration (MAXR) relative to DMSO; higher = less cytotoxic; conditions: SB.mhdgc-1 (hereditary c.1380delA CDH1 gastric cancer)
Outline: (§1)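 In 1536-well plates, each well held 500 gastric cancer cells of hereditary or sporadic patient origin in 5 μL medium. Compound in DMSO (23 nL, pintool) was added at 11 concentrations spaced threefold apart, and the top concentration was noted per compound. Luminescence was read on a ViewLux after a 48 h incubation and a 30 min room-temperature treatment with CellTiter-Glo. Figures give viability normalised to DMSO, either at the highest concentration or as trapezoidal area under the curve.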

SB.msgc-1 [2] = assay: as above; conditions: SB.msgc-1 (sporadic gastric cancer)
Outline: as §1

SB.mhdgc-1 [3] = assay: area under the dose-response curve of % viability (trapezoidal, 11 doses) (% viability x log10 concentration); higher = less cytotoxic; conditions: SB.mhdgc-1 (hereditary c.1380delA CDH1 gastric cancer)
Outline: as §1

SB.msgc-1 [4] = assay: as above; conditions: SB.msgc-1 (sporadic gastric cancer)
Outline: as §1

Structure (SMILES)	viability (SB.mhdgc-1 [1]) [%]	viability (SB.msgc-1 [2]) [%]	area under the dose-response curve (SB.mhdgc-1 [3])	area under the dose-response curve (SB.msgc-1 [4])
CC(C)(C)OC(=O)N[C@H]1CCCCC/C=C\[C@@H]2C[C@@]2(C(=O)N[S+](=O)([O-])C2CC2)NC(=O)[C@@H]2C[C@@H](OC(=O)N3Cc4cccc(F)c4C3)CN2C1=O [Danoprevir] (top concentration 46.0829 µM)	104	101	492	557
CO[C@@H](C(=O)N1Cc2[nH]nc(NC(=O)c3ccc(N4CCN(C)CC4)cc3)c2C1)c1ccccc1 [Danusertib] (top concentration 46.0829 µM)	23.2	26.3	387	469
CCOc1ccc(Cc2cc([C@@H]3O[C@H](CO)[C@@H](O)[C@H](O)[C@H]3O)ccc2Cl)cc1 [Dapagliflozin] (top concentration 46.0829 µM)	40.5	49.2	500	524
OC1=C(O)C2=C(\C=C/C(=O)O2)C=C1 [Daphnetin] (top concentration 46.0829 µM)	72.2	61.4	468	535
O=C(/C=C/c1cccnc1)NCCCCC1CCN(C(=O)c2ccccc2)CC1 [Daporinad] (top concentration 46.0829 µM)	41.7	42.8	264	419
CN(C)[C@@H](CCOc1cccc2ccccc12)c1ccccc1 [Dapoxetine hydrochloride] (top concentration 46.0829 µM)	15.4	47	463	516
CCCCCCCCCC(=O)N[C@@H](Cc1c[nH]c2ccccc12)C(=O)N[C@H](CC(N)=O)C(=O)N[C@@H](CC(=O)O)C(=O)N[C@@H]1C(=O)NCC(=O)N[C@@H](CCCN)C(=O)N[C@@H](CC(=O)O)C(=O)N[C@H](C)C(=O)N[C@@H](CC(=O)O)C(=O)NCC(=O)N[C@H](CO)C(=O)N[C@@H]([C@@H](C)CC(=O)O)C(=O)N[C@@H](CC(=O)c2ccccc2N)C(=O)O[C@@H]1C [Daptomycin] (top concentration 46.0829 µM)	119	112	573	531
Cc1nc(Nc2ncc(C(=O)Nc3c(C)cccc3Cl)s2)cc(N2CCN(CCO)CC2)n1 [Dasatinib] (top concentration 46.0829 µM)	53.2	37.8	416	398
COc1cccc2c1C(=O)c1c(O)c3c(c(O)c1C2=O)C[C@@](O)(C(C)=O)C[C@@H]3O[C@H]1C[C@H](N)[C@H](O)[C@H](C)O1 [Daunorubicin] (top concentration 46.0829 µM)	19.5	59.5	337	419
C[C@@H]1C[C@H]2[C@@H]3\C=C(C)/C4=C/C5=C(C[C@]4(C)[C@H]3[C@@H](O)C[C@]2(C)[C@@]1(O)C(=O)CO)C=N[N]5C6=CC=CC=C6 [Deacetyl cortivazol] (top concentration 46.0829 µM)	20.9	27.5	391	508
NC\1=N\C(=O)N(\C=N1)[C@H]2C[C@H](O)[C@@H](CO)O2 [Decitabine] (top concentration 46.0829 µM)	63.1	98.7	481	480
O=C(O)c1ccc(-n2nc(-c3ccccc3O)nc2-c2ccccc2O)cc1 [Deferasirox] (top concentration 46.0829 µM)	58.3	39.1	536	478
CC(=O)OCC(=O)[C@@]12\N=C(C)/O[C@@H]1C[C@H]3[C@@H]4CCC/5=C/C(=O)/C=C\[C@]5(C)[C@H]4[C@@H](O)C[C@]23C [Deflazacort] (top concentration 46.0829 µM)	97.3	105	489	552
CCC[C@H](NC(=O)/C(C#N)=C/c1cccc(Br)n1)c1ccccc1 [Degrasyn] (top concentration 46.0829 µM)	7.59	1.04	464	404
COC1=CC2=C(C=C1OC)[C@H]3[C@@H](CO2)OC4=C(C=CC5=C4\C=C/C(C)(C)O5)C3=O [Deguelin] (top concentration 46.0829 µM)	8.16	22.6	424	338
C[C@]12CC[C@H]3[C@@H](C\C=C/4C[C@@H](O)CC[C@]34C)[C@@H]1CCC2=O [Dehydroepiandrosterone] (top concentration 46.0829 µM)	32	38.2	465	530
CC(C)C[C@H](NC(=O)[C@@H](NC(=O)c1cccc(-c2ccccc2)n1)[C@@H](C)O)B(O)O [Delanzomib] (top concentration 46.0829 µM)	1.09	1.1	198	184
CN[C@H]1CCC2=CC(=C(OC)C(=C2C/3=C/C=C(OC)\C(=O)/C=C13)OC)OC [Demecolcine] (top concentration 46.0829 µM)	33.3	40	278	246
CC1(C)O[C@@H]2C[C@H]3[C@@H]4CCC5=CC(=O)C=C[C@]5(C)[C@H]4[C@@H](O)C[C@]3(C)[C@]2(C(=O)CO)O1 [Desonide] (top concentration 46.0829 µM)	111	108	508	523
C[C@H]1C[C@H]2[C@@H]3CCC4=CC(=O)C=C[C@]4(C)[C@@]3(F)[C@@H](O)C[C@]2(C)[C@@]1(O)C(=O)CO [Dexamethasone] (top concentration 46.0829 µM)	120	118	556	558
C[C@@H](CN1CC(=O)NC(=O)C1)N1CC(=O)NC(=O)C1 [Dexrazoxane hydrochloride] (top concentration 46.0829 µM)	33.7	73.3	384	491

Structure (SMILES)	viability (SB.mhdgc-1 [1]) [%]	viability (SB.msgc-1 [2]) [%]	area under the dose-response curve (SB.mhdgc-1 [3])	area under the dose-response curve (SB.msgc-1 [4])
COc1ccc2c(c1)[C@]13CCCCC1C(C2)N(C)CC3 (some centres undefined) [Dextromethorphan hydrobromide] (top concentration 46.0829 µM)	85.6	98.4	557	520
ClC1=CC=C(C=C1)C(C#N)C2=C(Cl)C=C(C=C2Cl)N3\N=C/C(=O)NC3=O (centres undefined) [Diclazuril] (top concentration 46.0829 µM)	8.68	61	538	511
O=C([O-])Cc1ccccc1Nc1c(Cl)cccc1Cl [Diclofenac sodium] (top concentration 46.0829 µM)	39.2	104	555	626
N[S+](=O)([O-])c1cc(Cl)c(Cl)c([S+](N)(=O)[O-])c1 [Diclofenamide] (top concentration 46.0829 µM)	112	118	592	575
COc1ccc2c(c1)CN(C)CC2c1ccc(Cl)c(Cl)c1 (centres undefined) [Diclofensine] (top concentration 46.0829 µM)	78.4	69.1	526	518
O=c1[nH]cnc2c1ncn2[C@H]1CC[C@@H](CO)O1 [Didanosine] (top concentration 46.0829 µM)	3.57	61.5	564	470
C/C=C(/C(=C/C)c1ccc(O)cc1)c1ccc(O)cc1 [Dienestrol] (top concentration 46.0829 µM)	34.3	70.9	527	457
C[C@]12CCC\3=C\4CCC(=O)\C=C4CC[C@H]3[C@@H]1CC[C@@]2(O)CC#N [Dienogest] (top concentration 46.0829 µM)	109	115	526	575
CC/C(=C(/CC)c1ccc(O)cc1)c1ccc(O)cc1 [Diethylstilbestrol] (top concentration 46.0829 µM)	10.1	39	404	448
C[C@H]1O[C@H](C[C@H](O)[C@@H]1O)O[C@H]2[C@@H](O)C[C@@H](O[C@@H]2C)O[C@H]3[C@@H](O)C[C@@H](O[C@@H]3C)O[C@H]4CC[C@@]5(C)[C@H](CC[C@@H]6[C@@H]5C[C@@H](O)[C@]7(C)[C@H](CC[C@]67O)C/8=C/C(=O)OC8)C4 [Digoxin] (top concentration 92.1659 µM)	21.9	49.9	343	377
O=C1c2c(O)cc(O)cc2O[C@H](c2cc(O)c(O)c(O)c2)[C@H]1O [Dihydromyricetin] (top concentration 46.0829 µM)	19.1	62.8	460	512
c1ccc2c(Cc3c[nH]c4ccccc34)c[nH]c2c1 [Diindolylmethane] (top concentration 46.0829 µM)	2.05	0.925	351	241
COc1ccc(C2Sc3ccccc3N(CCN(C)C)C(=O)C2OC(C)=O)cc1 (centres undefined) [Diltiazem hydrochloride] (top concentration 46.0829 µM)	96	115	588	583
COC(=O)/C=C/C(=O)OC [Dimethyl fumarate] (top concentration 46.0829 µM)	20.6	66.6	302	416
CCc1cnn2c(NCc3ccc[n+]([O-])c3)cc(N3CCCC[C@H]3CCO)nc12 [Dinaciclib] (top concentration 46.0829 µM)	59.7	42.2	351	299
C[C@@H]1CC[C@@]2(OC1)O[C@H]3C[C@H]4[C@@H]5C/C=C6/C[C@H](CC[C@]6(C)[C@H]5CC[C@]4(C)[C@H]3[C@@H]2C)O[C@@H]7O[C@H](CO)[C@@H](O[C@@H]8O[C@@H](C)[C@H](O)[C@@H](O)[C@H]8O)[C@H](O)[C@H]7O[C@@H]9O[C@@H](C)[C@H](O)[C@@H](O)[C@H]9O [Dioscin] (top concentration 46.0829 µM)	4.07	3.18	428	438
C[C@@H]1CC[C@@]2(OC1)OC1CC3C4CC=C5CC(O)CCC5(C)C4CCC3(C)C1[C@@H]2C (some centres undefined) [Diosgenin] (top concentration 46.0829 µM)	101	91.8	569	453
COC1=CC=C(C=C1O)C/2=C/C(=O)C3=C(O2)C=C(O[C@@H]4O[C@H](CO[C@@H]5O[C@@H](C)[C@H](O)[C@@H](O)[C@H]5O)[C@@H](O)[C@H](O)[C@H]4O)C=C3O [Diosmin] (top concentration 46.0829 µM)	39.5	48.1	494	427
CN(C)CCOC(c1ccccc1)c1ccccc1 [Diphenhydramine] (top concentration 46.0829 µM)	10.1	45.7	452	454
OCCN(CCO)c1nc(N2CCCCC2)c2nc(N(CCO)CCO)nc(N3CCCCC3)c2n1 [Dipyridamole] (top concentration 46.0829 µM)	9.99	19.4	473	512
